Experimental findings from publication PMC10386886, “First-in-class multifunctional TYMS nonclassical antifolate inhibitor with potent in vivo activity that prolongs survival” (JCI Insight, 2023) are described below.

Read-outs that look alike come from different tables or passages of the source.

The target in assay [1] is T1, purified human TYMS (Homo sapiens, UniProt P04818).
T1 construct: 6xHis (N); made in house; host or cells: E. coli BL21 (DE3), vector pQE80L-hTYMS
As to the kind of experiment: Tritium-based TYMS catalytic activity assay. It is filed as biochemical. The note with it: for TS activity, comparison at decreasing drug concentrations: Figure 6C; for TS activity (conversion of dUMP) in the presence of drug: drug 250 μM, 10 μg/mL TS protein, Figure 1B. On the procedure: To determine the inhibition of TYMS activity, we utilized a tritium-based TYMS catalytic assay (Figure 1A) to quantify the conversion of dUMP, which is proportional to TYMS activity ([33]). The assay was based on a previously published protocol ([33]) and modified to determine the amount of purified human TYMS (hTYMS) to be used in the conversion of dUMP to dTMP. […]
Tritium based TYMS catalytic activity assay
The catalytic activity of TYMS was determined by measuring the release of [3H] from [5-3H]dUMP (ViTrax, Cat # VT122) resulting from the conversion of dUMP to dTMP as previously described (2, 3).
The reaction conditions were optimized to determine the amount of TYMS protein needed to establish […]
reactions performed without TYMS or without the 5,10-methylene tetrahydrofolate (5,10-mTHF) cofactor (Supplemental Figure 2 and Supplemental methods). Reactions were performed in 50 mM KH2PO4 (Sigma Aldrich, Cat # P0662) at pH 7.2 using 2 µg of purified human TYMS. Reactions were performed in a final volume of 200 µL with 100 mM β-mercaptoethanol (Sigma Aldrich, Cat # M7522), 40 µM dUMP (Sigma Aldrich, Cat # D3876), 100 µM 5,10-mTHF, and the [5-3H]dUMP tracer (ViTrax, Cat # VT122) accounting for 0.06% of the final dUMP concentration in the reaction. The 5,10-mTHF used in the reaction was separately generated from tetrahydrofolic acid (Sigma Aldrich, Cat # T3125) by dissolving the solid in 10 mM KH2PO4 with 143 mM β-mercaptoethanol (1:100 from 14.3 M pure liquid), and 6.35 mM formaldehyde (Sigma Aldrich, Cat # 47608) to yield a 100 mM stock solution of 5,10- mTHF. Reactions were initiated by the addition of the dUMP substrate and 5,10-mTHF cofactor, then incubated at 37 °C for 30 minutes. […]
before the reaction was initiated by the addition of the dUMP substrate and 5,10-mTHF cofactor.
Reactions were terminated by the addition of 100 µL of ice-cold 20% trichloroacetic acid (Sigma Aldrich, Cat # T6399), then excess [5-3H]dUMP was removed by the addition of 200 µL of an albumin-coated activated charcoal solution. The albumin-coated activated charcoal solution was prepared by mixing 10 g of acid- washed activated dextran coated charcoal (Sigma Aldrich, Cat # C6241) with 2.5 g of bovine albumin (Sigma Aldrich, Cat # A1933) in 100 mL of H2O. The suspension was incubated at room temperature for 30 minutes and then centrifuged for 30 minutes at 10,000 x g. Then 150 µL of the supernatant was collected and added to 5 mL of ultima gold liquid scintillation cocktail (Perkin Elmer, Cat # 6013326, lot: 77-19085), and scintillation measurements were perform using a liquid scintillation counter (Beckman Coulter LS6500) to determine [3H]H2O levels in each sample. For all experiments, positive control reactions were performed with no drug representing 100% TYMS activity, and negative

Another assay addresses T2, DHFR (Homo sapiens, UniProt P00374).
T2 construct: purchased Sigma D6566 (kit CS0340)
T2 sequence (P00374 1-187): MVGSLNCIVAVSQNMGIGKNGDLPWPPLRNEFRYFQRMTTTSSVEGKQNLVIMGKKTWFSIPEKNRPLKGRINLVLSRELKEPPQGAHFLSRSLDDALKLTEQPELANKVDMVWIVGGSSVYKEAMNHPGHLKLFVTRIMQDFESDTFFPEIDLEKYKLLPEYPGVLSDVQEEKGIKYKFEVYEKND
As to the kind of experiment: Absorbance-based DHFR activity assay. It is filed as biochemical.

In assay [2] the target is T1, purified human TYMS. Description: Competitive drug displacement assay (tritium TYMS assay). The format is biochemical. The note with it: for dUMP conversion with increasing 5,10-mTHF concentration / dUMP conversion with increasing dUMP concentration: TS preincubated with drug, Figure 7. On the procedure:
For these experiments the TYMS protein was first incubated with each drug, and the reaction was then initiated by addition of 5,10-mTHF and dUMP using different concentrations of either 5,10-mTHF or dUMP to change the substrate/drug ratio. If there was competition between one of the substrates and the drug for the same binding site, then increasing the substrate concentration would displace more of the prebound drug and shift the equilibrium toward the enzyme/substrate complex, thus allowing the conversion of dUMP to proceed (Figure 7A). […]
all components including 2 µg TYMS protein to show the range of the assay, the background signal, and the dependence on 5,10-mTHF (Supplemental Figure 2C). To determine the signal from the [5-3H]dUMP tracer used in each reaction the same amount of the dUMP substrate with the [5-3H]dUMP tracer accounting for 0.06% of the final dUMP concentration was added directly to 5 mL of ultima gold liquid scintillation cocktail (Supplemental Figure 2C).
All reactions were performed in biological duplicate and technical duplicate. Results were analyzed using GraphPad Prism 9.
Competitive drug displacement assay
The tritium based TYMS catalytic activity assay was modified to determine if TYMS inhibition from 19-S, 19-S5, and 19-S7 was the result of competitive binding with either the dUMP substrate or the 5,10-mTHF cofactor. The competitive drug displacement assay utilized the standard reaction conditions for the tritium-based TYMS catalytic activity assay including 40 µM dUMP (Sigma Aldrich, Cat # D3876) with the [5- 3H]dUMP tracer (ViTrax, VT122) accounting for 0.06% of the final dUMP concentration and 100 µM 5,10- methylene tetrahydrofolate (defined as 1x dUMP and 1x 5,10-mTHF). Concentrations of total dUMP and 5,10- mTHF were then changed relative to these 1x concentrations to concisely indicate the changes in either the substrate or cofactor concentration. The highest 5x concentration of 5,10 - […]
5x concentration of total dUMP was not limited by solubility, although increases were performed in the same increments as 5,10-mTHF for comparison and 0.06% of the [5-3H]dUMP tracer was maintained at all concentrations. The remaining components in each 200 µL reaction were consistent in all reactions and included 2 µg of purified human TYMS in 50 mM KH2PO4 (Sigma Aldrich, Cat # P0662) and 100 mM β- mercaptoethanol (Sigma Aldrich, Cat # M7522). Control antifolate inhibitor PEM (Sigma Aldrich, Cat # PHR1596) was performed for reference of a TYMS specific classical antifolate and to […]
Human TYMS and DHFR preparation
Human Thymidylate Synthase (hTYMS) and human Dihydrofolate Reductase (hDHFR) were both expressed in BL21 (DE3) E. coli cells, using a standard BL21 transformation protocol, with the expression vector pQE80L-hTYMS (gift from Maria Paola Costi, University of Modena and Reggio Emilio, Italy) and pET100/D- TOPO (Invitrogen, Cat # K10001), respectively. Both vectors contained an N-terminal 6x Histidine tag attached to either hTYMS or hDHFR. After bacterial transformation, cells

The test system of the next assay is MIA PaCa-2 cells. Description: MTS viability assay, MIA PaCa-2. The following applies: Homo sapiens, 72-hour drug treatment, Figure 6E, highest concentration 350 μM. The format is cell-based. As to the method: Cells were harvested after 72 hours, and cell pellets were stored at –80°C. […] After 72 hours, cell viability was assessed by reduction of MTS using Cell Titer 96 R Aqueous One Solution Cell Proliferation Assay Kit (Promega, catalog G8081), following manufacturer’s recommendations. […] was measured on a SpectraMax M3 (Molecular Devices). Data were plotted in GraphPad Prism 9 to determine GI50 concentration. Chemical synthesis details, including characterization of each compound, can be found in the Supplemental section associated with this publication.

T1 sequence (P04818 whole entry): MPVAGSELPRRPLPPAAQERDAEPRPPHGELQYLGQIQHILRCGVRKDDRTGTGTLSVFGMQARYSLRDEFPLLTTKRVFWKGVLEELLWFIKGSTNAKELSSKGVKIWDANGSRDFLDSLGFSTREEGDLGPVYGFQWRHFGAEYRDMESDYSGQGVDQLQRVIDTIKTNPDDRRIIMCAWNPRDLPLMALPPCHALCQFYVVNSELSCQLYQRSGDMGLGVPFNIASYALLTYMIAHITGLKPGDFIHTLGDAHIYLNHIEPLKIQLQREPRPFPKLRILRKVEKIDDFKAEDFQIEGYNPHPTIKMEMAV
Description for DHFR: DHFR assay kit (Sigma Aldrich, Cat # CS0340) as described by the manufacturer. 0.1-unit DHFR
analogues or control drugs, 6 μL NADPH Cat # N6505 solution and 5 μl of dihydrofolic acid (DHFR
substrate) (Sigma, Cat # D7006). The reaction was then read on the spectrophotometer at 340 nm at
22 °C every 15 seconds for 2.5 minutes.

Usually GI50 stands for the concentration that inhibits growth by half. Low readings indicate more potent growth inhibition, high ones less potent growth inhibition. In the case of `CCc1nc(N)nc(N)c1-c1ccc(N(C)Cc2ccc(OC)cc2)c([N+](=O)[O-])c1` [Compound 19-S5], the “TS activity, screen of 19-S series analogs” value at purified human TYMS [1] (250 μM, Figure 6A) is on record as “inhibited TYMS activity”. The “TS activity, comparison at decreasing drug concentrations” value on purified human TYMS [1] is “greater TYMS inhibition than both MTX and PEM”. For the same molecule, the “DHFR activity, comparison at reduced drug concentrations” value on DHFR (Figure 6D) was “potent TYMS and DHFR inhibition”. On purified human TYMS [2], the “Mechanism of TYMS inhibition” value is on record as “blocking the folate-binding site”, the “dUMP conversion with increasing 5,10-mTHF concentration” value is listed as “increased the amount of dUMP conversion” and the “dUMP conversion with increasing dUMP concentration” value is given as “the amount of dUMP conversion did not increase”. Moreover, halving of growth with MIA PaCa-2 cells (GI50) required 280 nM.
With `CCc1nc(N)nc(N)c1-c1ccc(NCCOCCOCCN)c([N+](=O)[O-])c1` [Compound 19-S10], the “DHFR activity, screen of 19-S series analogs” value at DHFR (1 μM, Figure 6B) was “exception”.
In the case of `O=c1[nH]c(=O)n([C@@H]2O[C@H](CO)[C@@H](O)[C@H]2O)cc1F` [FUrd, 5-fluorouridine], the “TS activity (conversion of dUMP) in the presence of drug” value at purified human TYMS [1] was “inactive”.
Take `O=c1[nH]c(=O)n([C@H]2C[C@H](O)[C@@H](CO)O2)cc1F` [FdUrd, 5-fluoro-2′-deoxyuridine]: the “TS activity (conversion of dUMP) in the presence of drug” value on purified human TYMS [1] is on record as “reduced conversion of dUMP”.
For `Nc1nc2[nH]cc(CCc3ccc(C(=O)N[C@@H](CCC(=O)O)C(=O)O)cc3)c2c(=O)[nH]1` [PEM, pemetrexed], the “TS activity, comparison at decreasing drug concentrations” value at purified human TYMS [1] is listed as “greater TYMS inhibition than the MTX antifolate”. For the same molecule, on DHFR, the “DHFR activity, comparison at reduced drug concentrations” value is “less effective against DHFR”. In addition, on purified human TYMS [2], the “dUMP conversion with increasing 5,10-mTHF concentration” value was “increased the dUMP conversion” and the “dUMP conversion with increasing dUMP concentration” value is given as “did not increase dUMP conversion”.
